The text below walks through data of patent US9227977B2, “Phosphoinositide 3-kinase inhibitors” (RESPIVERT LTD., priority 2013, dated 2016).

Series [1] concerns the target PI3K α (Homo sapiens (Human), UniProt P42336). Briefly: PI3K enzyme inhibition assay (HTRF TR-FRET). Format: biochemical. An excerpt:
(§1) The PI3K enzymes catalyse the phosphorylation of phosphatidylinositol 4,5-biphosphate (PIP2) to phosphatidylinositol 3,4,5-triphosphate (PIP3) in the presence of ATP and Mg^2+ ions. The PIP3 product can be detected by displacement of biotin-PIP3 from energy transfer complexes consisting of europium labelled anti-GST monoclonal antibody, a GST-tagged Pleckstrin homology (PH) domain, biotinylated PIP3 and streptavidin-allophycocyanin (APC) by the time-resolved fluorescence resonance energy transfer (TR-FRET) (HTRF®PI3K enzyme assay, Millipore). Excitation, at 330 nm, of europium in the complex results in an energy transfer to the APC and a fluorescent emission at 665 nm although europium itself emits at its characteristic wavelength of 620 nm. The PIP3 product formed by PI3K activity displaces biotin-PIP3 from the complex and results in a loss of energy transfer (decreasing signal).
(§2) The compound to be tested was added, at the desired final concentrations, to a mixture of PIP2 substrate and a recombinant PI3K enzyme (either α, β or δ isoforms, ex Millipore, or γ isoform [p110γ+p101 construct], ex United States Biological, Swampscott, Mass.) and the mixture incubated for 2 hr at RT. […] A stopping solution containing biotinylated PIP3 and the detection mix containing the GST tagged GRP1 pleckstrin homology (PH) domain and fluorophores were then added and the mixture was incubated at RT for 15-18 hr, prior to detection in a fluorescence microplate reader (Synergy 4, BioTek UK, Bedfordshire, UK).
(§3) The results were calculated according to the formula: APC signal (emission at 665 nm)/europium signal (emission at 620 nm)×10^4.

For series [2], the target named is T1, PI3K γ (Homo sapiens (Human), UniProt P48736). Briefly: PI3K enzyme inhibition assay (HTRF TR-FRET). The format is biochemical.
Description: as §1, §2, §3
Target sequence in this assay (P48736 whole entry, species assumed): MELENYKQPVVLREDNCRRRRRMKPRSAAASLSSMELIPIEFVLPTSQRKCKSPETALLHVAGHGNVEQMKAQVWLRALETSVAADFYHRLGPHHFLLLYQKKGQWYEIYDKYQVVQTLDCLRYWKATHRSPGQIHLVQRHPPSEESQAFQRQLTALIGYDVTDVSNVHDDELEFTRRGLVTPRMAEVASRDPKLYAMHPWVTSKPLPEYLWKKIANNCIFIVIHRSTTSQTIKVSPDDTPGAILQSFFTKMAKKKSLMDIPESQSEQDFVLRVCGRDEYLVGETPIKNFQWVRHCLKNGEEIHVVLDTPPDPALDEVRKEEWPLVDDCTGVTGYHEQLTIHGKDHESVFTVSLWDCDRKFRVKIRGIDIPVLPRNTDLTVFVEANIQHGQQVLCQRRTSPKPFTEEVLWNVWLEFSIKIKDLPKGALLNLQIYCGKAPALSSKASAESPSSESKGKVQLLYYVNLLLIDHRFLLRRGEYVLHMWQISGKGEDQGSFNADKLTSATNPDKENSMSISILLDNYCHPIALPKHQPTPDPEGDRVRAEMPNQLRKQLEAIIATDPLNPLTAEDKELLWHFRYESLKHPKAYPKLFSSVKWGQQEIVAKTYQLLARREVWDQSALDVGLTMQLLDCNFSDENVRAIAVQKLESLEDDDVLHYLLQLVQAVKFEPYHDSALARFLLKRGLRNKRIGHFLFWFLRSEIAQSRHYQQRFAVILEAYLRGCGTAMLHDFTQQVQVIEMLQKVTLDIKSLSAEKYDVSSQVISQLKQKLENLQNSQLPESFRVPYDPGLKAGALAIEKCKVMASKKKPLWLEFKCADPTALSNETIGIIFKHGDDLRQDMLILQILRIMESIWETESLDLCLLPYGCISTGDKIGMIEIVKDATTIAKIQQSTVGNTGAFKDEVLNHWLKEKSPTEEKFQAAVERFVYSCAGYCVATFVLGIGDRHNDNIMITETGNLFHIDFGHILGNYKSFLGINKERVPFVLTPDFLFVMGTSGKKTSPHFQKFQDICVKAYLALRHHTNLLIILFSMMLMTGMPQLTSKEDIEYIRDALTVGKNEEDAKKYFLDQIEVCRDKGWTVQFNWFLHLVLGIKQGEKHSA
Target sequence in this assay (Q8WYR1 whole entry partner, species assumed): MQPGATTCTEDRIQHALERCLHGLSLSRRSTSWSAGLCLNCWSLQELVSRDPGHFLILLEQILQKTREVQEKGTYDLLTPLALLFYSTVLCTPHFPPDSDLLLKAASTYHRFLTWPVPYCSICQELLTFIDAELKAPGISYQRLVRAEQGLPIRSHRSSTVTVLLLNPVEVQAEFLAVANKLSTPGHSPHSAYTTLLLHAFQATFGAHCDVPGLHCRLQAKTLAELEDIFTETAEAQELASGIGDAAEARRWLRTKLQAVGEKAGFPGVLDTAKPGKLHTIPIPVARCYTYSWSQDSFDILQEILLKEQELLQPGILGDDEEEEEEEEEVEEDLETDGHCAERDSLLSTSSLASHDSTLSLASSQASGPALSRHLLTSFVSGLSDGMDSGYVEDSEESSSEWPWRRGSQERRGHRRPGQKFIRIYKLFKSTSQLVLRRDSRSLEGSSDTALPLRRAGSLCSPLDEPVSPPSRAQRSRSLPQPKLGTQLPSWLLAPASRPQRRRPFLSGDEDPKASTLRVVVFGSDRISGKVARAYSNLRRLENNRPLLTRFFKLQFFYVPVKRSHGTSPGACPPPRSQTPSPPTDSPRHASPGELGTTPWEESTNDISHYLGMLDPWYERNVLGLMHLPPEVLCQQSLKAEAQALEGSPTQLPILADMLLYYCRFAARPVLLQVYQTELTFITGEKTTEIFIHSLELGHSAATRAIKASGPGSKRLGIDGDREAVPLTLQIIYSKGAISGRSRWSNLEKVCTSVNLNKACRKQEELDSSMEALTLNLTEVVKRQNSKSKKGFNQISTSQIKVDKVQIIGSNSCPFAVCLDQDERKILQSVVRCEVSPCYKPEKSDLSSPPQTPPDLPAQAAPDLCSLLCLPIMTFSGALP

The target in series [3] is PI3K δ (Homo sapiens (Human), UniProt O00329). Briefly: PI3K enzyme inhibition assay (HTRF TR-FRET). The format is biochemical.
Sequence of PI3K δ (O00329 whole entry, species assumed): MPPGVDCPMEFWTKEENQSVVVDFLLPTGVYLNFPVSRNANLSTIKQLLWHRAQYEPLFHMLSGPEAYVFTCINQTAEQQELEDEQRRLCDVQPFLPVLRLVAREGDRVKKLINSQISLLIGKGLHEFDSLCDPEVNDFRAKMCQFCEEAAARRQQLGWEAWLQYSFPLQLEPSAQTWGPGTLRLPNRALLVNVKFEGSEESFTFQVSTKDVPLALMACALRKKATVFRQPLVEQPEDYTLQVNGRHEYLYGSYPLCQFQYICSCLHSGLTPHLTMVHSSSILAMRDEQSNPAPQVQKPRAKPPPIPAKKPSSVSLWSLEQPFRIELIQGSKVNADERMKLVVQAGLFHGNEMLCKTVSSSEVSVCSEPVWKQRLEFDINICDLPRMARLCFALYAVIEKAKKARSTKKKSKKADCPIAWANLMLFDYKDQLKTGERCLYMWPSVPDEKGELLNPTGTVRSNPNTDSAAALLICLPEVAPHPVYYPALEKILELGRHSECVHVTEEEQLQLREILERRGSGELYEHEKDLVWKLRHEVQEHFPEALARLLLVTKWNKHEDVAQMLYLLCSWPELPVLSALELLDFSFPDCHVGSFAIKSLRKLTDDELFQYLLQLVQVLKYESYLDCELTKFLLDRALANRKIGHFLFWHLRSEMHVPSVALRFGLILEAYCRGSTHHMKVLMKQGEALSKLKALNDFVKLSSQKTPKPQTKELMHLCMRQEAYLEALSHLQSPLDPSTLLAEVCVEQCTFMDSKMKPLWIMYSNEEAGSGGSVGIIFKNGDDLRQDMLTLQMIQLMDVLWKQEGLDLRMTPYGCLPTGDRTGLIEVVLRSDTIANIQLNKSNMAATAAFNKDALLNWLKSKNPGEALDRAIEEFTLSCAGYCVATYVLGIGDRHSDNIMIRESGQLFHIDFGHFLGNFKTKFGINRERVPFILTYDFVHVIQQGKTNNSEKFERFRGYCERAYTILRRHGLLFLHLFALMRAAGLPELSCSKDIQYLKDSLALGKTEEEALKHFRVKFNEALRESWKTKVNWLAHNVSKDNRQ
Sequence of PI3K δ (P27986 whole entry partner, species assumed): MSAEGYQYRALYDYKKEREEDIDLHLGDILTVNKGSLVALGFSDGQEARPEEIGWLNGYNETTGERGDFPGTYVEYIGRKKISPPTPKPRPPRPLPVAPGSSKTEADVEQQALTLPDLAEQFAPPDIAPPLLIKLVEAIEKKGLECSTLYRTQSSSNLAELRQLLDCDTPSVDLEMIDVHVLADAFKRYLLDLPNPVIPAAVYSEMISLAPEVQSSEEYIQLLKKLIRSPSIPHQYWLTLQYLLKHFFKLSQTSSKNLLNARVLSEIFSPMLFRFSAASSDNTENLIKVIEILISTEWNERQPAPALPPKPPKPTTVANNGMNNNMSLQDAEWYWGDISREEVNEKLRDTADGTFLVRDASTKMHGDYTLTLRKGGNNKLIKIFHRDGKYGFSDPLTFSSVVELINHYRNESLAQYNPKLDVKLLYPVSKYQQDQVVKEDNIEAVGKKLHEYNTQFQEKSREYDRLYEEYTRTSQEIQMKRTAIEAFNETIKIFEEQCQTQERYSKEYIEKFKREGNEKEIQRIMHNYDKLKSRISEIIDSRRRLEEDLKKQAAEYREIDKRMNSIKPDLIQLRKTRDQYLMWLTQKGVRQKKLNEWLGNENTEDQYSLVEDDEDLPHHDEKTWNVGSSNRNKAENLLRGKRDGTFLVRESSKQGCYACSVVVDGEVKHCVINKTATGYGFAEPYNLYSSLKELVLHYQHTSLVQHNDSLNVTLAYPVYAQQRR
Description: as §1, §2, §3

In series [4] the target is T1, PI3K γ. Briefly: PI3K γ cell based assay: MCP-1-induced Akt phosphorylation in d-U937 cells. Particulars: inhibition of induced Akt phosphorylation, MCP-1 stimulus; read-out: REC50 values in d-U937 cells, MCP-1 stimulus. The protocol: As a means of assessing the activation of PI3K γ in response to stimuli, the phosphorylation status of the protein, Akt, a downstream product of PI3K γ signalling, was determined following stimulation with MCP-1.
U937 cells were differentiated to macrophage-type cells by incubation with PMA (100 ng/mL) for 48 to 72 hr. Cells were then pre-incubated with either the test compound or vehicle for 2 hr and were then stimulated briefly with MCP-1 (10 nM, 1 min) and the reaction stopped by replacing the media with 4% formaldehyde solution. […] After washing with buffer (PBS containing 0.1% Triton X-100), cells were incubated with an HRP-conjugated secondary antibody (Dako) and the resultant signal was determined colorimetrically (OD: 450 nm with a reference wavelength of 655 nm) using TMB substrate (substrate reagent pack supplied by R&D Systems, Inc.).
This reaction was stopped by addition of 1N H2SO4 solution (100 μL). […] After washing with buffer (PBS containing 0.1% Triton X-100) 1% SDS (100 μL) was added to each well and the plates were shaken lightly for 1 hr prior to measuring the absorbance at 595 nm (Varioskan® Flash, Thermo-Fisher Scientific). The measured OD450-655 readings were corrected for cell number by dividing the OD450-655 by the OD595 readings. The ratio of pAkt signal to total Akt signal was used to quantitate the extent of PI3K γ activation. […]
Target sequence in this assay (P48736 whole entry): as the sequence (P48736 whole entry, species assumed) above

The subject of series [5] is d-U937 cells. The series is described as follows: MTT assay, cell viability. Format: cell-based, human. How it is done: PMA-differentiated U937 cells were pre-incubated with test compound (10 μg/mL) or vehicle for 4 hr in 5% FCS or 10% FCS for 24 hr. The supernatant was replaced with new media (200 μL) and MTT stock solution (10 μL, 5 mg/mL) was added to each well. After 1 hr incubation, the media were removed, 200 μL of DMSO was added to each well and the plates were shaken lightly for 1 hr prior to reading the absorbance at 550 nm. The percentage loss of cell viability was calculated for each well relative to vehicle (0.5% DMSO)-treatment.

Series [6] deals with ovalbumin-induced airway eosinophilia and neutrophilia in mice. The series is described as follows: Ovalbumin-induced airway eosinophil and neutrophil accumulation in mice. Format: in vivo, mouse. Particulars: OVA-sensitized mice, i-t; for Cell numbers in BALF, Eosinophils / Cell numbers in BALF, Neutrophils: mean ± SEM. How it is done:
BALB/c mice (6-8 weeks old) were immunized with OVA (10 μg/mouse i.p.) on days 0 and 7. In order to elicit a local inflammatory response in the lung, mice were repeatedly challenged between days 13-15 with a nebulised solution of ovalbumin (10 mg/mL, 30 min exposure, De Vilibiss Ultraneb 2000). On day 17 each animal received via intra-tracheal administration of either vehicle or test compound 2 hr prior to the final OVA challenge. Animals were anaesthetized 8 hr later before undergoing a tracheotomy. BAL was obtained by instilling PBS (1 mL) into the lungs, which was then withdrawn. This procedure was repeated to provide approximately 2 mL of lavage fluid. Total cell numbers in the BALF samples were measured using a haemocytometer. Cytospin smears of the BALF samples were prepared by centrifugation at 200 rpm for 5 min at RT and stained using a DiffQuik stain system (Dade Behring) for differential cell counts. Cells were counted using oil immersion microscopy. Data is expressed as differential number of cells per mL of […] (mean±S.E.M).

Like-named read-outs stand apart in the source and are kept apart here.

Sequence of PI3K α (P42336 whole entry, species assumed): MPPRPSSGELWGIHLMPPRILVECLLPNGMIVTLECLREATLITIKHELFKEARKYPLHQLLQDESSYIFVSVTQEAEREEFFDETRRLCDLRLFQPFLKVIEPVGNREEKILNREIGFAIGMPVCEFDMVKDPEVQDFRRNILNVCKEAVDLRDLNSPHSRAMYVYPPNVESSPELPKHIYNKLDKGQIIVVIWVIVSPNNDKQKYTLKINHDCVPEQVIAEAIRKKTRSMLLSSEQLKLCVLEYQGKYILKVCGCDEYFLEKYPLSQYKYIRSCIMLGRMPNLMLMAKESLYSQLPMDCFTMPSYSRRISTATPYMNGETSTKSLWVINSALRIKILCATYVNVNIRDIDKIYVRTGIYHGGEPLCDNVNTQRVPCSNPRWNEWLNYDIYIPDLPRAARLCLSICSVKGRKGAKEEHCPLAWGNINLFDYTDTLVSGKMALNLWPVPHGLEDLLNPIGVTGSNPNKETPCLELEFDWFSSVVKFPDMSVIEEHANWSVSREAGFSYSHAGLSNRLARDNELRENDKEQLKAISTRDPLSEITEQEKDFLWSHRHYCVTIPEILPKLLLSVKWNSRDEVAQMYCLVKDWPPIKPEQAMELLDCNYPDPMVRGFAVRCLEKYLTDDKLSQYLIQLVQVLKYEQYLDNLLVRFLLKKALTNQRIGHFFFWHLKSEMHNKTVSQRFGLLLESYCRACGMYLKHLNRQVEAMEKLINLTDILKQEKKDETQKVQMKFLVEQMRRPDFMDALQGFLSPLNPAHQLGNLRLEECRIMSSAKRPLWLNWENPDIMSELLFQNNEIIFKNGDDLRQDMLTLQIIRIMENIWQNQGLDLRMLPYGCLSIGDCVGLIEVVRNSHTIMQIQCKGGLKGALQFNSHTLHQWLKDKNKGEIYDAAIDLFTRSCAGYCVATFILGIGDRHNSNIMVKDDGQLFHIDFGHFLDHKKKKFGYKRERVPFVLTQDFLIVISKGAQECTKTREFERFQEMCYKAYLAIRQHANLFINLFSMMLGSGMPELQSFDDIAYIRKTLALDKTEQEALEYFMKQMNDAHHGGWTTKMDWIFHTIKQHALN
Sequence of PI3K α (P27986 whole entry partner, species assumed): as the sequence (P27986 whole entry partner, species assumed) above

On to `COCCOCCOCC#Cc1cccc2nc(Cn3nc(-c4cc(O)cc(F)c4)c4c(N)ncnc43)n(Cc3ccccc3C(F)(F)F)c(=O)c12` [Compound (I), 2-((4-Amino-3-(3-fluoro-5-hydroxyphenyl)-1H-pyrazolo[3,4-d]pyrimidin-1-yl)methyl)-5-(3-(2-(2-methoxyethoxy)ethoxy)prop-1-yn-1-yl)-3-(2-(trifluoromethyl)benzyl)quinazolin-4(3H)-one], for which the “inhibitory activity versus PI3K α in enzyme assays (in words)” value in series [1] is “no inhibitory activity”. In addition, the IC50 in series [1] (read-out: IC50 Values for PI3K inhibition at isozyme indicated, PI3K α) was above 13900 nM; in series [1] (read-out: PI3 Kinase Inhibition IC50 value at state isozyme, α), above 13900 nM; in series [2] (read-out: IC50 Values for PI3K inhibition at isozyme indicated, PI3K γ), 28 nM; in series [2] (read-out: PI3 Kinase Inhibition IC50 value at state isozyme, γ), 28 nM; in series [3] (read-out: IC50 Values for PI3K inhibition at isozyme indicated, PI3K δ), 2.5 nM; in series [3] (read-out: PI3 Kinase Inhibition IC50 value at state isozyme, δ), 2.5 nM. Besides, the EC50 in series [4] stood at 16.5 nM. Further, the “effects on cell viability (in words)” value in series [5] is recorded as “No effects”. For the same compound, in series [5] (10 μg/mL, 4 hr), the “Cell Viability MTT Assay in d-U937 cells at 4 hr” value is “−ve (−ve indicates a value of <30% inhibition at 10 μg/mL)”. The “Cell Viability MTT Assay in d-U937 cells at 24 hr” value in series [5] (10 μg/mL, 24 hr) is given as “−ve (−ve indicates a value of <30% inhibition at 10 μg/mL)”. Further, the “% inhibition, Eosinophils in BALF” value is 20% in series [6] (0.05 mg/mL), 85% in series [6] (0.2 mg/mL) and 91% in series [6] (1 mg/mL). Moreover, the “% inhibition, Neutrophils in BALF” value in series [6] (0.05 mg/mL) was 18%; in series [6] (0.2 mg/mL), 70%; in series [6] (1 mg/mL), 80%. Moreover, the entries for the “Cell numbers in BALF, Eosinophils” value in series [6] (0.05 mg/mL), in series [6] (0.2 mg/mL) and in series [6] (1 mg/mL) were 19.7 ± 3.2 x10^4/mL, 3.8 ± 0.9 x10^4/mL and 2.1 ± 0.4 x10^4/mL, respectively. Also, the “Cell numbers in BALF, Neutrophils” value was 8.0 ± 0.4 x10^4/mL in series [6] (0.05 mg/mL), 2.9 ± 0.5 x10^4/mL in series [6] (0.2 mg/mL) and 2.0 ± 0.3 x10^4/mL in series [6] (1 mg/mL).
